According to patent US20090311217A1, “3-SUBSTITUTED-1H-INDOLE COMPOUNDS, THEIR USE AS MTOR KINASE AND PI3 KINASE INHIBITORS, AND THEIR SYNTHESES” (priority 2008, published 2009):
pIC50: −log10 of the molar value. Read-outs that look alike come from different tables or passages of the source.

What was measured:
Format in all cases: biochemical
PI3K-alpha = PI3K-alpha (Homo sapiens, UniProt P42336); assay: PI3K-alpha fluorescence polarization assay; conditions: read-out: PI3Kα Avg. IC50
PI3K-delta = PI3K-delta (Homo sapiens, UniProt O00329); assay: PI3K-delta fluorescence polarization assay; conditions: read-out: PI3Kδ Avg. IC50
human TOR = target: T1, human TOR (Homo sapiens, UniProt P42345); assay: mTOR enzyme assay (DELFIA, His6-S6K substrate); conditions: read-out: mTOR Kinase Avg. IC50
T1 construct: FLAG

PI3K-gamma = PI3K-gamma (Homo sapiens, UniProt P48736); assay: PI3K-gamma fluorescence polarization assay
How it was run: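 FP displacement read-out: 100 nM GST-GRP1 PH domain plus 5 nM BODIPY-TMR-IP4 added after EDTA stop. Preceding kinase step: 5 ng enzyme, diC8-PI(4,5)P2 2.5 μM, ATP 25 μM, MgCl2 2.5 mM, HEPES 5 mM pH 7, one hour, 25° C.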

Sequence of PI3K-delta (O00329 whole entry, species assumed): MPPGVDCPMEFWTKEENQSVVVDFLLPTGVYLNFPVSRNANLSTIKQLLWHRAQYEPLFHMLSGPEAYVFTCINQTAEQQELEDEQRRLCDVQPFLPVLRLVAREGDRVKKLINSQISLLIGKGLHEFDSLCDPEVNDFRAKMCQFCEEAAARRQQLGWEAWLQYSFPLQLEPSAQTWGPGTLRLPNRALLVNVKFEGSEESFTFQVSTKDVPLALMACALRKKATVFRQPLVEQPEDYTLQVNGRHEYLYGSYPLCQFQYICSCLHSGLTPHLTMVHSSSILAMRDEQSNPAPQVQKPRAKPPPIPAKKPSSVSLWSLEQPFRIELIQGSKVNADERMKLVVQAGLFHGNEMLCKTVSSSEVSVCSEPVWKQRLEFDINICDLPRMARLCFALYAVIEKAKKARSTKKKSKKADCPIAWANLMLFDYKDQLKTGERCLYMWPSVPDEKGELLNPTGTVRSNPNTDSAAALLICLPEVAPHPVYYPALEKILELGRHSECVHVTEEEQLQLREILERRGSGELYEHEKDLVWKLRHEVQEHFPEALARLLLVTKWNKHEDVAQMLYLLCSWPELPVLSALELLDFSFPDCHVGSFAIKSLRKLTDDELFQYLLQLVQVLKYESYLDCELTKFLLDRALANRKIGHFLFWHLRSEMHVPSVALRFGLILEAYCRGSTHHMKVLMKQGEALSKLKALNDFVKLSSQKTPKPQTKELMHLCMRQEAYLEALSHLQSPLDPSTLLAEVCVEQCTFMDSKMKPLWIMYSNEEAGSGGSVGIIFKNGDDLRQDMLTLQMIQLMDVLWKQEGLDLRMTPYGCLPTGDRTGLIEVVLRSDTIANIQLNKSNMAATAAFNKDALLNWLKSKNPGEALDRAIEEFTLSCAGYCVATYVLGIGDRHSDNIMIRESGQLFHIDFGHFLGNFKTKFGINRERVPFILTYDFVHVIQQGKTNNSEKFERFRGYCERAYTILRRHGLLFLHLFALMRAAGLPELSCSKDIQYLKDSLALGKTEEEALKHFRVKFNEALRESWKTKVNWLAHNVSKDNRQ
Sequence of PI3K-delta (P27986 whole entry partner, species assumed): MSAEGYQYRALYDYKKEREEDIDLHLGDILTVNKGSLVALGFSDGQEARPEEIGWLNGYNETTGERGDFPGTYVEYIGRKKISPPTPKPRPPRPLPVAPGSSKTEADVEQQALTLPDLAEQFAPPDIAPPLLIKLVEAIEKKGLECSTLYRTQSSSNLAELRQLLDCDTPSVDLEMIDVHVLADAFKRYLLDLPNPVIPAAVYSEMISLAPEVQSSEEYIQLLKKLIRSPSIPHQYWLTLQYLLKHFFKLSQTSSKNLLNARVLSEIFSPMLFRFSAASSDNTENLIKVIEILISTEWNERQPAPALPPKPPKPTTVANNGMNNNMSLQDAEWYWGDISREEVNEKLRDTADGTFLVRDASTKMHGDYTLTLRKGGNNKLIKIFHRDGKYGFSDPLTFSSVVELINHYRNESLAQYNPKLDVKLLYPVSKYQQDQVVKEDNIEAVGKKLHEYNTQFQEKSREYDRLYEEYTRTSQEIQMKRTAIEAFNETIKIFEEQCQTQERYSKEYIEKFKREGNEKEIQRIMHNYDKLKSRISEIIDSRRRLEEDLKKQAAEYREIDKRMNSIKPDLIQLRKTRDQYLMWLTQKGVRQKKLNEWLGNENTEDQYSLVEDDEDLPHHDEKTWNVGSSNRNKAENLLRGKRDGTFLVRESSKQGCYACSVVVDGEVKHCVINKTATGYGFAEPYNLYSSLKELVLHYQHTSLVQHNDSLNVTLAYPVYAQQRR
Sequence of PI3K-alpha (P42336 whole entry, species assumed): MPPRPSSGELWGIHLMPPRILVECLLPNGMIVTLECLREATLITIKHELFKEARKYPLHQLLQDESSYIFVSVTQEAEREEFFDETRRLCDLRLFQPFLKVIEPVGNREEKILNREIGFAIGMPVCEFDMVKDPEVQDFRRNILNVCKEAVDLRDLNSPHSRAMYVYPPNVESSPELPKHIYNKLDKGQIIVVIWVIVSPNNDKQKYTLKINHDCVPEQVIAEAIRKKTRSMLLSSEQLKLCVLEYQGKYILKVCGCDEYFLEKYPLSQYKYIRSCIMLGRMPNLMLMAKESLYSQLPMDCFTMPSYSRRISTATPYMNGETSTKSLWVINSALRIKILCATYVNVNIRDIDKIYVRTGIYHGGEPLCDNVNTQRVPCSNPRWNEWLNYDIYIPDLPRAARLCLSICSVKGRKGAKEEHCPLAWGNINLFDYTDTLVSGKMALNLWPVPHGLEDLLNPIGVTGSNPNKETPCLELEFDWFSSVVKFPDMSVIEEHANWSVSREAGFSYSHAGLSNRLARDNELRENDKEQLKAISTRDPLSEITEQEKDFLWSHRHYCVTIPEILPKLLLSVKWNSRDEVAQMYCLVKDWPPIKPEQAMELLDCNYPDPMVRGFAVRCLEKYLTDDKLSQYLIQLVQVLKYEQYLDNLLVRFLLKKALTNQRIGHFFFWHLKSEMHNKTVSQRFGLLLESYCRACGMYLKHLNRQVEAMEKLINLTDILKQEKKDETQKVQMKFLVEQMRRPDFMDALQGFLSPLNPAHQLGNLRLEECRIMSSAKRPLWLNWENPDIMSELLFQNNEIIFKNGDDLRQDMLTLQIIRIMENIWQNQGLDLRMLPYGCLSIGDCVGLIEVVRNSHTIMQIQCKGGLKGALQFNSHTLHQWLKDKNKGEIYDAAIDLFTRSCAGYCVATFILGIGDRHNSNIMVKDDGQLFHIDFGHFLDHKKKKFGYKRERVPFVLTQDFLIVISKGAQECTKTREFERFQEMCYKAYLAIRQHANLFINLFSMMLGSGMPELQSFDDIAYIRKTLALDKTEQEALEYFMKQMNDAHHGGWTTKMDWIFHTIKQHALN
Sequence of PI3K-alpha (P27986 whole entry partner, species assumed): as the sequence (P27986 whole entry partner, species assumed) above
Sequence of PI3K-gamma (P48736 whole entry, species assumed, the tested form may be a part): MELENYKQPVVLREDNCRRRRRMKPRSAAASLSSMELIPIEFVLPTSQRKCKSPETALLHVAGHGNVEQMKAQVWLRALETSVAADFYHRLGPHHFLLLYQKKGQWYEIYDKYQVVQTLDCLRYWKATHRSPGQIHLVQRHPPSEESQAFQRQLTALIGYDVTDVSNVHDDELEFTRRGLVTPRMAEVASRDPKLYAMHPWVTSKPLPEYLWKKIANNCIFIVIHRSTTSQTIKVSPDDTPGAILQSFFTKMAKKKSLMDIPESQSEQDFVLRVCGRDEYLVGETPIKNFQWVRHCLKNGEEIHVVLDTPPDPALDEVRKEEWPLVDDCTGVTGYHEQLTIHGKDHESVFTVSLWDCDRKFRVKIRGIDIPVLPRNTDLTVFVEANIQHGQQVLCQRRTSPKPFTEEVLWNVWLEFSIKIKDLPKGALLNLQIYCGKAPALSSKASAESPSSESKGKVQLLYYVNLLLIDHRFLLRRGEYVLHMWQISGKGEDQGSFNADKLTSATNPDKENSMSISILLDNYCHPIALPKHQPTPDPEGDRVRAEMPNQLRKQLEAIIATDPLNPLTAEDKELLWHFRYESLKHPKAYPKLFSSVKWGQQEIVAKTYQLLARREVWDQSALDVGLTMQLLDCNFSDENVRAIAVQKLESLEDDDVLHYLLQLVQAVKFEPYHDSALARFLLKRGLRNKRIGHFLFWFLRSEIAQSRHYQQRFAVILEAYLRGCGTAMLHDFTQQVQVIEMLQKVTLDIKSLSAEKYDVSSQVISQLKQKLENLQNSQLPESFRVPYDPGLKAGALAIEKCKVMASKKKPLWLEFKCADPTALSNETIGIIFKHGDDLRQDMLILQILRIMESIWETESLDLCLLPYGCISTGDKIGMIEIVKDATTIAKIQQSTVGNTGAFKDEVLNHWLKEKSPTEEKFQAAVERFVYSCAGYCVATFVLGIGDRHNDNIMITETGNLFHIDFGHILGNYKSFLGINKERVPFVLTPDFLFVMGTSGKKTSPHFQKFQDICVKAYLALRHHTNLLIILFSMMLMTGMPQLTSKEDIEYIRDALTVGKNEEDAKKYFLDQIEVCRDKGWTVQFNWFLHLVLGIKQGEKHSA

Compound	pIC50 (PI3K-alpha)	pIC50 (PI3K-delta)	pIC50 (human TOR)	pIC50 (PI3K-gamma; PI3Kγ Avg. IC50)	pIC50 (PI3K-gamma; read-out: PI3Kγ Avg. IC50)
COc1ccc2c(c1)c(/C=C1\Oc3ccc(NC(=O)Nc4ccc(C(=O)N5CCN(C)CC5)cc4)cc3C1=O)c(C)n2CCN1CCN(C)CC1 [Compound 618, 1-[(2Z)-2-({5-methoxy-2-methyl-1-[2-(4-methylpiperazin-1-yl)ethyl]-1H-indol-3-yl}methylene)-3-oxo-2,3-dihydro-1-benzofuran-5-yl]-3-{4-[(4-methylpiperazin-1-yl)carbonyl]phenyl}urea]	9.30	8.30	7.00	–	–
(2Z)-2-[(4-Bromo-1-methyl-1H-indol-3-yl)methylene]-4,6-dimethoxybenzofuran-3(2H)-one [Example 408]	5.48	–	< 4.70	–	5.71
O=C1C(=Cc2c(-c3cccnc3)[nH]c3ccccc23)Oc2cc(O)cc(O)c21 [Example 202, 4,6-dihydroxy-2-[(2-pyridin-3-yl-1H-indol-3-yl)methylene]-1-benzofuran-3(2H)-one]	5.98	–	7.02	5.15	–
CNC(=O)c1ccc(-c2cccc3c2c(/C=C2\Oc4cc(O)cc(O)c4C2=O)cn3C)cc1 [Example 392, 4-{3-[(Z)-(4,6-dihydroxy-3-oxo-1-benzofuran-2(3H)-ylidene)methyl]-1-methyl-1H-indol-4-yl}-N-methylbenzamide]	6.34	–	7.77	< 5.14	–
Cn1cc(C=C2Oc3cc(O)cc(O)c3C2=O)c2cc(F)ccc21 [Example 227, 2-[(5-fluoro-1-methyl-1H-indol-3-yl)methylene]-4,6-dihydroxy-1-benzofuran-3(2H)-one]	6.12	–	5.42	5.12	–
CNC(=O)Nc1ccc2c(c1)C(=O)/C(=C/c1c(-c3c(C)nn(C)c3C)n(CCNCCO)c3ccc(OC)cc13)O2 [Compound 648, 1-[(2Z)-2-{[1-{2-[(2-hydroxyethyl)amino]ethyl}-5-methoxy-2-(1,3,5-trimethyl-1H-pyrazol-4-yl)-1H-indol-3-yl]methylene}-3-oxo-2,3-dihydro-1-benzofuran-5-yl]-3-methylurea]	8.53	–	8.05	7.43	–
COc1ccc2c(c1)c(/C=C1\Oc3cc(O)cc(O)c3C1=O)c(C1CCCC1)n2CCN1CCN(C)CC1 [Example 410, (2Z)-2-({2-cyclopentyl-5-methoxy-1-[2-(4-methylpiperazin-1-yl)ethyl]-1H-indol-3-yl}methylene)-4,6-dihydroxy-1-benzofuran-3(2H)-one]	8.52	–	9.19	6.93	–
O=C1C(=Cc2c(-c3cccc(O)c3)[nH]c3ccccc23)Oc2cc(O)cc(O)c21 [Example 205, 4,6-dihydroxy-2-{[2-(3-hydroxyphenyl)-1H-indol-3-yl]methylene}-1-benzofuran-3(2H)-one]	6.32	–	6.96	5.62	–

More lines, main results first:

pIC50 (PI3K-alpha)	pIC50 (PI3K-delta)	pIC50 (human TOR)	pIC50 (PI3K-gamma; PI3Kγ Avg. IC50)	Compound	pIC50 (PI3K-gamma; read-out: PI3Kγ Avg. IC50)
9.70	8.60	7.42	–	COc1ccc2c(c1)c(/C=C1\Oc3ccc(NC(=O)Nc4ccc(C(=O)N5CCN(C)CC5)cc4)cc3C1=O)c(C)n2CCO [Compound 619, 1-[(2Z)-2-{[1-(2-hydroxyethyl)-5-methoxy-2-methyl-1H-indol-3-yl]methylene}-3-oxo-2,3-dihydro-1-benzofuran-5-yl]-3-{4-[(4-methylpiperazin-1-yl)carbonyl]phenyl}urea]	–
9.52	8.70	6.62	–	CCn1c(C)c(/C=C2\Oc3ccc(NC(=O)Nc4ccc(C(=O)N5CCN(C)CC5)cc4)cc3C2=O)c2cc(OC)ccc21 [Compound 620, 1-{(2Z)-2-[(1-ethyl-5-methoxy-2-methyl-1H-indol-3-yl)methylene]-3-oxo-2,3-dihydro-1-benzofuran-5-yl}-3-{4-[(4-methylpiperazin-1-yl)carbonyl]phenyl}urea]	–
8.41	–	6.65	5.72	COc1ccc2c(c1)c(/C=C1\Oc3ccc(NC(=O)Nc4ccc(N(C)C)cc4)cc3C1=O)c(C)n2CCN1CCN(C)CC1 [Compound 633, 1-[4-(dimethylamino)phenyl]-3-[(2Z)-2-({5-methoxy-2-methyl-1-[2-(4-methylpiperazin-1-yl)ethyl]-1H-indol-3-yl}methylidene)-3-oxo-2,3-dihydro-1-benzofuran-5-yl]urea]	–
8.78	–	7.04	7.96	CCn1c(C)c(/C=C2\Oc3ccc(NC(=O)Nc4ccc(OCCCNC)cc4)cc3C2=O)c2cc(OC)ccc21 [Compound 683, 1-{(2Z)-2-[(1-ethyl-5-methoxy-2-methyl-1H-indol-3-yl)methylidene]-3-oxo-2,3-dihydro-1-benzofuran-5-yl}-3-{4-[3-(methylamino)propoxy]phenyl}urea]	–
8.90	–	8.70	8.30	CNC(=O)Nc1ccc2c(c1)C(=O)/C(=C/c1c(-c3cn(C)nc3C)[nH]c3ccc(OC)cc13)O2 [Compound 722, 1-[(2Z)-2-{[2-(1,3-dimethyl-1H-pyrazol-4-yl)-5-methoxy-1H-indol-3-yl]methylidene}-3-oxo-2,3-dihydro-1-benzofuran-5-yl]-3-methylurea]	–
5.38	–	5.84	5.35	O=C1C(=Cc2c(-c3ccccc3)n(CC3CC3)c3ccccc23)Oc2cc(O)cc(O)c21 [Example 152, 2-{[1-(cyclopropylmethyl)-2-phenyl-1H-indol-3-yl]methylene}-4,6-dihydroxy-1-benzofuran-3(2H)-one]	–
9.60	–	9.00	8.85	COc1ccc2[nH]c(-c3c(C)nn(C)c3C)c(/C=C3\Oc4ccc(NC(=O)Nc5ccc(C(=O)N6CCC(N(C)C)C6)cc5)cc4C3=O)c2c1 (stereo not drawn) [Compound 697, 1-(4-{[3-(dimethylamino)pyrrolidin-1-yl]carbonyl}phenyl)-3-[(2Z)-2-{[5-methoxy-2-(1,3,5-trimethyl-1H-pyrazol-4-yl)-1H-indol-3-yl]methylidene}-3-oxo-2,3-dihydro-1-benzofuran-5-yl]urea]	–
6.57	–	7.21	5.57	Cn1cc(/C=C2\Oc3cc(O)cc(O)c3C2=O)c2c(-c3ccc(NC(=O)NC4CC4)cc3)cccc21 [Example 401, 1-cyclopropyl-3-(4-{3-[(Z)-(4,6-dihydroxy-3-oxo-1-benzofuran-2(3H)-ylidene)methyl]-1-methyl-1H-indol-4-yl}phenyl)urea]	–
< 5.29	–	< 4.70	< 5.29	Cn1c(-c2ccccc2)c(/C=C2\Oc3cccc(O)c3C2=O)c2ccccc21 [Example 442, (2Z)-4-Hydroxy-2-[(1-methyl-2-phenyl-1H-indol-3-yl)methylene]benzofuran-3(2H)-one]	–
9.05	–	< 5.40	8.40	COc1ccc2[nH]cc(/C=C3\Oc4ccc(NC(=O)Nc5ccc(C(=O)N6CCN(C)CC6)cc5)cc4C3=O)c2c1 [Compound 643, 1-{(2Z)-2-[(5-methoxy-1H-indol-3-yl)methylene]-3-oxo-2,3-dihydro-1-benzofuran-5-yl}-3-{4-[(4-methylpiperazin-1-yl)carbonyl]phenyl}urea]	–
5.05	–	< 4.70	5.12	COc1ccc2c(c1)c(/C=C1\Oc3cc(NS(C)(=O)=O)ccc3C1=O)cn2CCCN(C)C [Example 422, N-(2Z)-[2-({1-[3-(Dimethylamino)propyl]-5-methoxy-1H-indol-3-yl}methylene)-3-oxo-2,3-dihydro-1-benzofuran-6-yl]methanesulfonamide]	–
